Results: PubChem BioAssay (NCI)
Values joined by “and” are separate entries in the source; they are usually repeats but may differ in a detail not shown here. Equal entries are not always repeated.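 48-hour exposure; five concentrations; linearly interpolated endpoints. GI50 = concentration required for 50% inhibition of growth. TGI denotes the concentration required for complete inhibition of growth.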

What was measured:
Experiment in all cases: growth of human tumour cells (NCI), 48 h
786-0 renal = tested on: 786-0 renal
A549 NSCLC = tested on: A549 NSCLC
COLO 205 colon = tested on: COLO 205 colon
HCC-2998 colon = tested on: HCC-2998 colon
HCT-116 colon = tested on: HCT-116 colon
RPMI-8226 leukemia = tested on: RPMI-8226 leukemia
SK-MEL-2 melanoma = tested on: SK-MEL-2 melanoma
SK-MEL-28 melanoma = tested on: SK-MEL-28 melanoma
SK-MEL-5 melanoma = tested on: SK-MEL-5 melanoma
SK-OV-3 ovarian = tested on: SK-OV-3 ovarian

| SMILES | GI50 (786-0 renal) | TGI (786-0 renal) | GI50 (A549 NSCLC) | TGI (A549 NSCLC) | GI50 (COLO 205 colon) | TGI (COLO 205 colon) | GI50 (HCC-2998 colon) | TGI (HCC-2998 colon) | GI50 (HCT-116 colon) | TGI (HCT-116 colon) | GI50 (RPMI-8226 leukemia) | TGI (RPMI-8226 leukemia) | GI50 (SK-MEL-2 melanoma) | TGI (SK-MEL-2 melanoma) | GI50 (SK-MEL-28 melanoma) | TGI (SK-MEL-28 melanoma) | GI50 (SK-MEL-5 melanoma) | TGI (SK-MEL-5 melanoma) | GI50 (SK-OV-3 ovarian) | TGI (SK-OV-3 ovarian) |
| --- | --- | --- | --- | --- | --- | --- | --- | --- | --- | --- | --- | --- | --- | --- | --- | --- | --- | --- | --- | --- |
| Cc1ccc2c(c1)C(=O)/C(=C/c1ncc([N+](=O)[O-])n1C)O2 | 2.16 µM | 5.31 µM | 2.74 µM | 9.29 µM | 1.99 µM | 5.09 µM | 2.29 µM | 5.4 µM | 0.282 µM | 0.886 µM | 1.6 µM | 5.63 µM | 1.88 µM | 3.54 µM | 2.34 µM | 7.29 µM | 1.14 µM | 2.51 µM | 2.53 µM | 7.24 µM |
| CCCCC/C(C=C(C#N)C#N)=C/c1ccccc1 | 7.45 µM | 21.6 µM | 8.95 µM | > 43.6 µM | 4.91 µM | 16.3 µM | 4.69 µM | 9.77 µM | 1.95 µM | 4.46 µM | 1.92 µM | 5.78 µM | 17.4 µM | 41.3 µM | 2.86 µM | 8.57 µM | 2.68 µM | 14.2 µM | 7.87 µM | 23.5 µM |
| O=C1NNC=Nc2ccc(cc2)S(=O)(=O)c2ccc(cc2)N=CNNC1=O | – | > 100 µM | – | > 100 µM | – | > 100 µM | – | > 100 µM | – | > 100 µM | – | – | – | > 100 µM | – | > 100 µM | – | > 100 µM | – | > 100 µM |
| Cc1ccc(-c2c3c([nH]c(=O)c2C#N)-c2cc(F)ccc2OC3)cc1 | 64.4 µM | > 100 µM | 55 µM | > 100 µM | > 100 µM | > 100 µM | – | – | – | – | 28.3 µM | > 100 µM | 55.4 µM | 98.4 µM | > 100 µM | > 100 µM | 41.8 µM | > 100 µM | 97.6 µM | > 100 µM |
| O=C1c2cccc(NCCN=Cc3cc(O)ccc3O)c2C(=O)c2c(NCCN=Cc3cc(O)ccc3O)cccc21 | 1.88 µM | 4.69 µM | 1.51 µM | 4.24 µM | 0.495 µM | 1.94 µM | 1.39 µM | 2.93 µM | – | – | – | – | 2.02 µM | 3.91 µM | 1.77 µM | 3.66 µM | – | – | 2.34 µM | 7.63 µM |
| Cc1ccc(S(=O)(=O)C(CC(=O)N2CCCC2)C(=O)c2ccccc2)cc1 (stereo unspecified) | – | > 100 µM | – | > 100 µM | – | > 100 µM | – | > 100 µM | – | > 100 µM | – | – | – | – | – | > 100 µM | – | > 100 µM | – | – |
| Clc1ccc(C2N3CCCCC3[C@@H]3c4[nH]c5ccccc5c4CCN23)cc1 (stereo partly specified) | – | > 100 µM | – | > 100 µM | – | – | – | > 100 µM | – | > 100 µM | – | > 100 µM | – | > 100 µM | – | > 100 µM | – | > 100 µM | – | > 100 µM |
| COc1cccc(-c2cc(=O)c3cc(N(C)C)ccc3[nH]2)c1 | 0.0368 µM and 0.0096 µM | > 100 µM and 36.7 µM | – | > 100 µM | 0.0283 µM and 0.0125 µM | 0.0875 µM and 0.0317 µM | 0.0472 µM and 0.0229 µM | – | 0.0155 µM and 0.00433 µM | – | – | – | 0.0359 µM and 0.00735 µM | – | 0.0209 µM and 0.00582 µM | > 100 µM | 0.0125 µM and 0.00356 µM | – | 0.025 µM and 0.00359 µM | – |
| O=C(O)Cn1ccc(=O)c2ccc([N+](=O)[O-])cc21 | – | > 100 µM | – | > 100 µM | – | > 100 µM | – | > 100 µM | – | > 100 µM | – | – | – | > 100 µM | – | > 100 µM | – | > 100 µM | – | > 100 µM |
